Positions count from the first letter of the chain named.
Tests used:
[1] = biological target: T1, OsDRP1E (MBP-OsDRP1E) (Oryza sativa, UniProt Q650Z3, E409V); assay: colorimetric phosphate release GTPase assay; format: biochemical; settings: MBP fusion; time course and 2, 5, 10 ug protein; lower activity than wild type
T1 construct: gene Os09g0572900; tag kept; native protein 70 kDa
T1 sequence (Q650Z3 1-626 E409V): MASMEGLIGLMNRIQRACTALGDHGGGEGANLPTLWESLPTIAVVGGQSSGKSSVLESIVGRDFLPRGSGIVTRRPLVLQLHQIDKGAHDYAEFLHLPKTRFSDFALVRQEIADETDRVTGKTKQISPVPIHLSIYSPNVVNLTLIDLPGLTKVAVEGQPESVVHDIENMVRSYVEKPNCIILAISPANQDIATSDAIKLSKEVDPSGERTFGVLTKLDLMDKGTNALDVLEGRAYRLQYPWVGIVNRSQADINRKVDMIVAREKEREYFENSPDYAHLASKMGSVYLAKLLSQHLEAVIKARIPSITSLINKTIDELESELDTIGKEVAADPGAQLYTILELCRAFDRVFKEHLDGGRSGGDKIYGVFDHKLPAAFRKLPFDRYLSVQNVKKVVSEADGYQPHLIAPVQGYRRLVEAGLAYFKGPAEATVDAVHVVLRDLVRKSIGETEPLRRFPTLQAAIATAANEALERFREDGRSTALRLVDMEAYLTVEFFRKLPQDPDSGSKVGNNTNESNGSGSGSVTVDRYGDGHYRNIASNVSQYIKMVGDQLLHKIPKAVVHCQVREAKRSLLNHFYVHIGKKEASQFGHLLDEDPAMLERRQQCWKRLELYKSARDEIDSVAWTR

[2] = biological target: T2, OsDRP1E (MBP-OsDRP1E) (Oryza sativa, UniProt Q650Z3); assay: colorimetric phosphate release GTPase assay; format: biochemical; settings: MBP fusion; time course and 2, 5, 10 ug protein
T2 construct: gene Os09g0572900; tag kept; native protein 70 kDa
T2 sequence (Q650Z3 1-626): T1 sequence (Q650Z3 1-626 E409V) with V409E

## Nc1nc2c(ncn2[C@@H]2O[C@H](COP(=O)(O)OP(=O)(O)OP(=O)(O)O)[C@@H](O)[C@H]2O)c(=O)[nH]1 [GTP]
[1]
  colorimetric phosphate release GTPase assay: both MBP-OsDRP1E and MBP-E409V displayed catalytic activity towards the substrate GTP
[2]
  colorimetric phosphate release GTPase assay: both MBP-OsDRP1E and MBP-E409V displayed catalytic activity towards the substrate GTP
